Like-named read-outs stand apart in the source and are kept apart here.

For this assay, the target named is T1, acetylcholine muscarinic M1 receptor (Homo sapiens, UniProt P11229).
T1 construct: expressed in transfected cells; host or cells: CHOnfat (CHO cells; also called CHOK1/hM1)
T1 sequence (P11229 1-460): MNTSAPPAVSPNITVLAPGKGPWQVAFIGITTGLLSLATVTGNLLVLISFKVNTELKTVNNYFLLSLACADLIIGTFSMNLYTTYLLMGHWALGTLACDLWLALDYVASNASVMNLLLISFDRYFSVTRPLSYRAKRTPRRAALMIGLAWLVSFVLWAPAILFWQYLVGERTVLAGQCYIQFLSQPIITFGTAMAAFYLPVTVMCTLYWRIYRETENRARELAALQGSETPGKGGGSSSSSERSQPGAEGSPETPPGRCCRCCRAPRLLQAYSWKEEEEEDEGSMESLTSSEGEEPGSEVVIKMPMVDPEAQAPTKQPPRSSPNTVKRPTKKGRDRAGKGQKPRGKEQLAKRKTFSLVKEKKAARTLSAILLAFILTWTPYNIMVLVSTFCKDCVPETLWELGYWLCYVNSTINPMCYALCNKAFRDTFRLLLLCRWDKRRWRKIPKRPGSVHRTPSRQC
Kind of assay: Muscarinic M1 FLIPR intracellular calcium assay for positive allosteric modulators. In kind it is cell-based. As to the method: The assay studies the effect of one or several concentrations of test compounds on basal or acetylcholine-stimulated Ca^2+ levels using FLIPR.
Compounds are prepared and subjected to a preincubation period of 4 min. Thereafter, a single EC20 concentration of acetylcholine is added to each well (3 nM final). The intracellular Ca^2+ level of each sample is measured and compared to an acetylcholine control to determine any modulatory activity.
Cells: CHOnfat/hM1, hM2, hM3 or hM4 cells are plated 24 hr before the assay at a density of 18,000 cells/well (100 μL) in a 384 well plate. CHOnfat/hM1 and CHOnfat/hM3 Growth Medium: 90% DMEM (Hi Glucose); 10% HI FBS; 2 mM L-glutamine; 0.1 mM NEAA; Pen-Strep; and 1 mg/ml Geneticin, are added. For M2Gqi5CHOnfat and M4Gqi5CHOnfat cells, an additional 600 ug/ml hygromycin is added.
Equipment: 384 well plate, 120 μL addition plate; 96-well Whatman 2 ml Uniplate Incubator, 37° C., 5% CO2; Skatron EMBLA-384 Plate Washer; Multimek Pipetting System; Genesis Freedom 200 System; Mosquito System; Temo Nanolitre Pipetting System; and FLIPR^384 Fluorometric Imaging Plate Reader System are used.
Buffers. Assay Buffer: Hanks Balanced Salt Solution, with 20 mM Hepes, 2.5 mM Probenecid (Sigma P-8761) first dissolved in 1 N NaOH, 1% Bovine Serum Albumin (Sigma A-9647). Dye Loading Buffer: Assay Buffer plus 1% Fetal Bovine Serum and Fluo-4AM/Pluronic Acid Mixture. 2 mM Fluo-4AM ester stock in DMSO (Molecular Probes F-14202) Concentration of 2 μM in buffer for a final concentration of 1 μM in Assay. 20% Pluronic Acid Solution stock, with concentration of 0.04% in Buffer, 0.02% in Assay.
65 μL of 2 mM Fluo-4AM are mixed with 130 μL of 20% Pluronic Acid. The resulting solution and 650 μL FBS is added to the assay buffer for a total volume of 65 mL. Positive Controls: 4-Br-A23187: 10 mM in DMSO; final concentration 10 μM. Acetylcholine: 10 mM in water, working stock at both 20 μM and 30 μM in assay buffer, final concentration of 10 μM. This is used to check the maximum stimulation of the CHOK1/hM1 cells. 20 μM (2×) acetylcholine is added in the preincubation part of the assay, and the 30 μM (3×) stock is added in the second part. (EC20)Acetylcholine: 10 mM in water, working stock of 9 nM (3×), and final concentration in assay is 3 nM. This is used after the preincubation with test compounds. Addition of the EC20 Acetylcholine to each well with a test compound will ascertain any modulator activity. 24 wells contain 3 nM Acetylcholine alone as a control.
Determining Activity of Putative Compounds:
Screening Plate Compounds are titrated in 96-well plates (columns 2-11), 100% DMSO, started at a concentration of 15 mM (150× stock concentration), and 3-fold serial dilutions using Genesis Freedom200 System. Four 96-well plates are combined into a 384-well plate using Mosquito Nanolitre Pipetting System by transferring 1 μl of serial diluted compounds to each well, and 1 mM acetylcholine (100× stock concentration) were added as a control. Using Temo, 49 μl assay buffer is added to each well of the 384-well plate right before assay.
In a 96-well Whatman 2 ml Uniplate, 9 nM Acetylcholine (3×) is pipetted into wells corresponding to the screening compounds, and into control wells. The 30 μM acetylcholine control (3×) is added into control wells, and the 3× agonist plate is transferred into a 384 well plate.
Cells are washed three times with 100 μL of buffer, leaving 30 μL of buffer in each well. Using Multimek, 30 μL of Dye Loading Buffer is added into each well and incubated at 37° C., 5% CO2 for up to one hr.
After 60 min, the cells are washed three times with 100 μL of buffer, leaving 30 μL of buffer in each well. The cell plate, screening plate, and agonist addition plates are placed on the platform in the FLIPR and the door closed. A signal test to check background fluorescence and basal fluorescence signal is performed. Laser intensity is adjusted if necessary. […]
For orientation: A change in cytosolic calcium serves as a functional read-out for many receptors and channels.

Setting [1] is: IP = inflection point calculated from FLIPR values, CHOnfat/hM1 cells, 4 min preincubation, then EC20 acetylcholine (3 nM final), read-out: IP Value.

In the case of `COc1ccc(Cc2cc(C(=O)N[C@H]3CCOC[C@@H]3O)nc3c(F)cccc23)cn1` [Example 19, 8-Fluoro-N-[(3R,4S)-3-hydroxytetrahydro-2H-pyran-4-yl]-4-[(6-methoxypyridin-3-yl)methyl]quinoline-2-carboxamide], the EC50 is 0.019 µM.

As to `Cn1cc(-c2ccc(Cc3cc(C(=O)N[C@H]4COCC[C@@H]4O)nc4ccccc34)cn2)cn1` [Example 10, N-[(3S,4S)-4-Hydroxytetrahydro-2H-pyran-3-yl]-4-{[6-(1-methyl-1H-pyrazol-4-yl)pyridin-3-yl]methyl}quinoline-2-carboxamide], under setting [1], the EC50 is 0.017 µM.

`O=C(N[C@H]1CCOC[C@@H]1O)c1cc(Cc2ccc(C(F)F)nc2)c2cccc(F)c2n1` [Example 17, 4-{[6-(Difluoromethyl)pyridin-3-yl]methyl}-8-fluoro-N-[(3R,4S)-3-hydroxytetrahydro-2H-pyran-4-yl]quinoline-2-carboxamide]: the EC50 under setting [1] is 0.018 µM.

The values above are taken from US9199939B2, “Quinoline amide M1 receptor positive allosteric modulators” (Merck Sharp & Dohme Corp., priority 2009, dated 2015).
